This note sets out measurements from patent US5981748A, “Synthesis of optically pure compounds useful as GARFT inhibitors and their intermediates” (Agouron Pharmaceuticals, Inc., priority 1998, dated 1999).

For the experiment, the target named is catalytic domain of the human GARFT (Homo sapiens, UniProt P22102). Description: biochemical.
Sequence of catalytic domain of the human GARFT (P22102 810-1010 limits assumed): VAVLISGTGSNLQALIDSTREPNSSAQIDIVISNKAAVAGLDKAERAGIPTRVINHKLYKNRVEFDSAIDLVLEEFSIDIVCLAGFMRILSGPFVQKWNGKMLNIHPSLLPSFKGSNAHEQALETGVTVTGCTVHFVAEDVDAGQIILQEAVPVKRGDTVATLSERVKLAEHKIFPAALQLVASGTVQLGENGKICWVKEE

Method: Reactions mixtures were prepared containing the catalytic domain of the human GARFT, 0-250 nM test compound, 20 μM glycinamide ribonucleotide (GAR), 10 or 20 μM N^10 -formyl-5,8-dideazafolate (FDDF), 50 mM HEPES-KOH (pH 7.5), and 50 mM KCl. The reaction was initiated with the addition of enzyme to a final concentration of 11 nM, followed by monitoring of the increase in absorbance at 294 nm at 20° C. (ε294 =18.9 mM^-1 cm^-1).
The GARFT inhibition constant (Ki) was determined from the dependence of the steady-state catalytic rate on the inhibitor and substrate concentration. […] The Michaelis constant for FDDF, Km, was determined independently by the dependence of the catalytic rate on the FDDF concentration. Data for both the Km and Ki determinations were fitted by non-linear methods to the Michaelis equation or to the Michaelis equation for competitive inhibition, as appropriate.

Regarding `Nc1nc2c(c(=O)[nH]1)S[C@H](CCc1ccc(C(=O)N[C@@H](CCC(=O)O)C(=O)O)s1)CN2` [Compound 15, 2-(5-[2-(2-Amino-4-oxo-4,6,7,8-tetrahydro-3H-pyrimido[5,4-b][1,4]thiazin-6(R)-yl)-ethyl]-thiophene)-2-L-glutamic acid], the affinity corresponds to a Ki of 3 nM.
